Molecular target: T1, N-terminal GST-tagged, recombinant, human JAK2 (amino acids 831-1132) (Homo sapiens, UniProt O60674)
T1 construct: human JAK2 (amino acids 831-1132, PLAZA database pAZB0359); GST (N); host or cells: insect cells
Test: JAK2 mobility shift assay on Caliper LC3000 (Method 2)
Assay type: biochemical
Details: 0.3 nM JAK2 enzyme, 5 mM ATP, 1.5 μM SRCtide, 90 minutes room temperature
Description: Janus kinase 2 (JAK2) activity was also determined by measuring the kinase's ability to phosphorylate a tyrosine residue within a peptide substrate using a mobility shift assay on a Caliper LC3000 reader (Caliper, Hopkinton, Mass.), which measures fluorescence of the phosphorylated and unphosphorylated substrate and calculates a ratiometric value to determine percent turnover.
To measure JAK2 kinase activity, an in-house purified enzyme was used. […] After incubation of the kinase with a FAM labeled SRCtide substrate, adenosine triphosphate (ATP), and MgCl2 for 90 minutes at room temperature, the kinase reaction was stopped by the addition of 36 mM ethylenediaminetetraacetic acid (EDTA). The reaction was performed in 384 well microtitre plates and the reaction products were detected using the Caliper LC3000 Reader.

T1 sequence (O60674 831-1132): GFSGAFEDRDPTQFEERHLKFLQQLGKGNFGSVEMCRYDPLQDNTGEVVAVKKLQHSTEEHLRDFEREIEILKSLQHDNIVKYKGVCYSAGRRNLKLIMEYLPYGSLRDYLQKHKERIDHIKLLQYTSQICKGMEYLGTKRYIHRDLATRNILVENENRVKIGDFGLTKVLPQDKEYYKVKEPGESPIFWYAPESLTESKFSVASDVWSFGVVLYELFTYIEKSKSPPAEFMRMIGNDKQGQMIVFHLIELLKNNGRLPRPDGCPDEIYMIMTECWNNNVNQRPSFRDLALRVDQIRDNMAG

| Compound | IC50 [nM] |
| --- | --- |
| COc1cnc(C(C)Nc2nc(Nc3cn(C)cn3)c3cc[nH]c3n2)nc1 (single isomer, unassigned) [Example 27(a), N^2-[1-(5-Methoxypyrimidin-2-yl)ethyl]-N^4-(1-methyl-1H-imidazol-4-yl)-7H-pyrrolo[2,3-d]pyrimidine-2,4-diamine] | 17600 |
| COc1cnc(C(C)Nc2nc(Nc3cn(C)cn3)c3cc[nH]c3n2)nc1 (stereo not shown) [Example 27(b), N^2-[1-(5-Methoxypyrimidin-2-yl)ethyl]-N^4-(1-methyl-1H-imidazol-4-yl)-7H-pyrrole[2,3-d]pyrimidine-2,4-diamine] | 520 |
| CC(Nc1nc(Nc2cn(C)cn2)c2cc[nH]c2n1)c1ncc(F)cc1F (single isomer, unassigned) [Example 25(b), N^2-[1-(3,5-Difluoropyridin-2-yl)ethyl]-N^4-(1-methyl-1H-imidazol-4-yl)-7H-pyrrolo[2,3-d]pyrimidine-2,4-diamine] | 10 |
| CCn1ncc2c(Nc3cn(C)cn3)nc(NC(C)c3ncc(F)cn3)nc21 (single isomer, unassigned) [Example 9(b), 1-Ethyl-N^6-[1-(5-fluoropyrimidin-2-yl)ethyl]-N^4-(1-methyl-1H-imidazol-4-yl)-1H-pyrazolo[3,4-d]pyrimidine-4,6-diamine] | 40 |
| C[C@H](Nc1nc(Nc2cn(C)cn2)c2cc(C(F)(F)F)[nH]c2n1)c1ncc(F)cn1 [Example 19, N^2-[(1S)-1-(5-Fluoropyrimidin-2-yl)ethyl]-N^4-(1-methyl-1H-imidazol-4-yl)-6-(trifluoromethyl)-7H-pyrrolo[2,3-d]pyrimidine-2,4-diamine] | 13 |
| CC(Nc1nc(Nc2cn(C)cn2)c2ccc(C(F)(F)F)nc2n1)c1ncc(F)cc1F (racemic) [Example 33, N^2-[1-(3,5-Difluoropyridin-2-yl)ethyl]-N^4-(1-methyl-1H-imidazol-4-yl)-7-(trifluoromethyl)pyrido[2,3-d]pyrimidine-2,4-diamine] | 26 |
| C[C@H](Nc1nc(Nc2cn(C)cn2)c2ccc(C(F)(F)F)nc2n1)c1ncc(F)cn1 [Example 32, N^2-[(1S)-1-(5-Fluoropyrimidin-2-yl)ethyl]-N^4-(1-methyl-1H-imidazol-4-yl)-7-(trifluoromethyl)pyrido[2,3-d]pyrimidine-2,4-diamine] | 35 |
| Cc1cc2c(Nc3cn(C)cn3)nc(N[C@@H](C)c3ncc(F)cn3)nc2[nH]1 [Example 20, N^2-[(1S)-1-(5-Fluoropyrimidin-2-yl)ethyl]-6-methyl-N^4-(1-methyl-1H-imidazol-4-yl)-7H-pyrrolo[2,3-d]pyrimidine-2,4-diamine] | 13 |

Molecular target: T2, C-terminal His6-tagged human JAK2 kinase (Homo sapiens, UniProt O60674)
T2 construct: His6 (C); purchased Upstate Biotechnology, MA 14-640; host or cells: baculovirus in Sf21 cells
T2 sequence (O60674 808-1132 limits assumed): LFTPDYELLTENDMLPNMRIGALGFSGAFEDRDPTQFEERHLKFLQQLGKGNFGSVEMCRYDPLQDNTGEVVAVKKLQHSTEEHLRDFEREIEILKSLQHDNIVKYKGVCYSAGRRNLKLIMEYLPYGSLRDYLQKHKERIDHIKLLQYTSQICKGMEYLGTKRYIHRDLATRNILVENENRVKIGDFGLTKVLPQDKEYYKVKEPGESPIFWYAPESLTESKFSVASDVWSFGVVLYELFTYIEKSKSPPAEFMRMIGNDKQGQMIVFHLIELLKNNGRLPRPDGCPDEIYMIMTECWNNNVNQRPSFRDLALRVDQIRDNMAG
Test: JAK2 Amplified Luminescent Proximity Homogeneous Assay (ALPHA) (Method 3)
Assay type: biochemical
Details: biotinylated Tyk substrate, 20 minutes preincubation, 90 minutes at 25° C.
Description: Activity of purified C-terminal His6-tagged human JAK2 kinase was determined in-vitro using an Amplified Luminescent Proximity Homogeneous Assay (ALPHA) (Perkin Elmer, MA), which measures phosphorylation of a biotinylated Tyk ([…]) substrate (Cell Signaling Technology, MA, Cat #2200B). Commercially available JAK2 (amino acids 808-end, Genbank Accession number NM 004972, Upstate Biotechnology, MA, Catalog 14-640) was expressed by baculovirus in Sf21 cells and affinity purified by Ni^+2/NTA agarose.
The phosphorylation of Tyk substrate in the presence and absence of the compound of interest was determined. Briefly, 5 μl of Enzyme/Substrate/adenosine triphosphate (ATP) mix consisting of 1.44 nM JAK2, 192 nM Tyk, and 12 mM ATP in 1.2× buffer was preincubated with 2 μl of compound for 20 minutes at 25° C. […] Phosphorylated substrate was detected by an EnVision plate reader (Perkin Elmer, MA) 680 nm excitation, 520-620 nm emission. Data was graphed and IC50s calculated using Excel Fit (Microsoft).

| Compound | IC50 [nM] |
| --- | --- |
| CCn1ncc2c(Nc3cn(C)cn3)nc(NC(C)c3ncc(F)cn3)nc21 (single isomer, unassigned) [Example 9(a), 1-Ethyl-N^6-[1-(5-fluoropyrimidin-2-yl)ethyl]-N^4-(1-methyl-1H-imidazol-4-yl)-1H-pyrazolo[3,4-d]pyrimidine-4,6-diamine] | 13700 |
| CC(Nc1nc(Nc2cn(C)cn2)c2cc[nH]c2n1)c1ncc(F)cc1F (single isomer, unassigned) [Example 25(a), N^2-[1-(3,5-Difluoropyridin-2-yl)ethyl]-N^4-(1-methyl-1H-imidazol-4-yl)-7H-pyrrolo[2,3-d]pyrimidine-2,4-diamine] | 2900 |
